Experimental data taken from patent US20250235467A1, “DENDRITIC CELL VACCINATION IN PARALLEL TO CHEMOTHERAPY” (priority 2018, published 2025).
Like-named read-outs stand apart in the source and are kept apart here. Marks after values point to notes of the source that are not given here.

Columns and labels:
[1] = test system: relapsed platinum-sensitive epithelial ovarian cancer; experiment: Randomized, open-label phase II clinical trial, DC vaccine added to carboplatin and gemcitabine vs chemotherapy alone; format: in vivo, human; details: ITT population, N = 32 per group
Source text: An interim analysis was first performed, followed later by the final analysis.
A total of 6, 8, or 10 cycles of standard of care chemotherapy were to be completed by patients in both treatment groups as per investigators' decision (FIG. 4).

[2] = test system: platinum-sensitive recurrent ovarian cancer; details: cited from earlier work; for PFS HR: p <0.0001
[3] = test system: newly diagnosed epithelial ovarian carcinoma
Description: The study was conducted as an open label, multicenter phase II clinical trial in women with newly diagnosed epithelial ovarian carcinoma who have undergone debulking surgery.
The planned number of chemotherapy cycles was 6 in all treatment groups (FIG. 1).
Results were calculated either by using as beginning of the trial period the time of first treatment or the time of randomization. Two pre-planned per protocol interim analyses of PFS and OS were performed first at 6 months and second at 12 months after the last dose of standard of care chemotherapy of the last enrolled patient. […]

[4] = test system: metastatic stage IV non-small cell lung cancer (NSCLC); experiment: Open label, multicenter phase II clinical trial, DCVAC/LuCa + carboplatin and paclitaxel vs carboplatin and paclitaxel alone; format: in vivo, human; details: PP population; interim analysis of PFS
Description: The purpose of the study is to compare efficacy of DCVAC/LuCa+chemotherapy (carboplatin and paclitaxel) vs. carboplatin and paclitaxel alone in patients with stage IV NSCLC, as measured by OS and progression free survival (PFS). PFS was measured based on radiological assessments according to the RECIST (Response Evaluation Criteria in Solid Tumors) guidelines (version 1.1) (Eisenhauer et al. 2009).
The planned number of chemotherapy cycles was 4-6 in all treatment groups (FIG. 7).

[5] = group A: after the start of DC vaccine treatment, group B: shorter reporting time period

Substance: carboplatin and gemcitabine
- No. of 2nd-line chemotherapy non-responders: n (%) [1]: 0 (0.00%) n (%)

Substance: Bevacizumab
- OS HR ([2]; bevacizumab 15 mg/kg IV q3w + carboplatin AUC4 + gemcitabine, p 0.6479): 0.952^c
- OS HR ([2]; bevacizumab 15 mg/kg IV q3w + carboplatin AUC4 + gemcitabine, p 0.6479, listed as bevacizumab): 0.952
- PFS HR ([2]; bevacizumab 15 mg/kg IV q3w + carboplatin AUC4 + gemcitabine): 0.48^c
- OS HR ([2]; bevacizumab 15 mg/kg IV q3w + carboplatin AUC5 + paclitaxel, p 0.0447): 0.823^c
- OS HR ([2]; bevacizumab 15 mg/kg IV q3w + carboplatin AUC5 + paclitaxel, p 0.0447, listed as bevacizumab): 0.823
- PFS HR ([2]; bevacizumab 15 mg/kg IV q3w + carboplatin AUC5 + paclitaxel): 0.613^c

Substance: carboplatin and paclitaxel
- No. of 1st-line chemotherapy non-responders: n (%) ([3]; ITT population, N = 31 per group): 0 (0.00%) n (%)
- Number of SAEs reported [3, 5]: 14
- Number of patients in whom SAEs were reported [3, 5]: 9
- Progression of the lung cancer disease [4]: progressed for all patients
